# Reference: patent US20050069517A1, “Hair conditioning compositions” (priority 2003, published 2005)
# Experiment: Hair penetration by TOF-SIMS imaging of cross sections of treated hair fibers
# Assay type: physicochemical, human
# Settings: bleached dark brown European hair; agent massaged in, 24 hours at approximately 32° C., rinsed 1 minute, air-dried; positive-ion TOF-SIMS images
# Method: What is meant by “penetrate” is that the hair conditioning agent is deposited into a region of the hair following application of the conditioning agent to the hair for twenty-four hours. Such analysis of hair penetration is set forth below in Example 8.
# Various hair conditioning agents were tested for their ability to penetrate into human hair. Secondary ion mass spectrometry (SIMS) in combination with a time of flight (TOF) mass spectrometer was used to determine hair penetration. Time-Of-Flight Secondary Ion Mass Spectrometry (TOF-SIMS) makes use of the secondary ion mass spectra (of atomic species or low molecular weight fragments), which are formed when the sample surface (e.g., surface of hair fiber cross sections) is bombarded with a positively charged gallium ion beam. The positive and negative ion mass spectra of the sample were obtained by the time-of-flight method. See, e.g., Ruetsch, et al., J. Cosmet. Sci., 52, 169-184 (2001). The Gallium gun, which emits a pulsed primary ion beam (accelerating voltage of 25 kV), was used in the study.
# The protocol was as follows. Dark brown European hair obtained from DeMeo Brothers, New York, N.Y. was bleached for 30 minutes with alkaline 6% hydrogen peroxide (adjusted to pH 10.2 with ammonium hydroxide). […]
structure (smiles),measurement,value
CCCCCCCCCCCCCCCC(=O)N[C@@H](CO)C(=O)OCCCCCCCCCCCCCC [Palmitoyl Myristyl Serinate],penetration of hair conditioning agent into hair fiber cross section,not detected in the cross section of treated hair
